US10280150B2 (FORMA TM2, Inc., priority 2014, dated 2019)
Read-outs that look alike come from different tables or passages of the source.

How the values were obtained:
[1] = biological target: IDH1-R132H recombinant protein (Homo sapiens (Human), UniProt O75874, R132H); assay: IDH1-R132H enzymatic assay (inhibition of NADPH consumption, diaphorase/resazurin readout); type: biochemical; conditions: read-out: Enzyme IDH1 R132H IC50 (Range)
Summary of the method: (§1)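 Compound was preincubated 15 min at 25 °C with 30 nM IDH1-R132H or 10 nM IDH1-R132C in Tris pH 7.5 buffer with MgCl2, BSA and Triton X-100. Reaction with 2 mM α-ketoglutarate and 20 μM NADPH (solution concentrations) ran 45 min at 25 °C. Remaining NADPH was detected via diaphorase/resazurin fluorescence (ex 535/em 590 nm), and IC50 came from four-parameter fits.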

[2] = biological target: IDH1-R132C recombinant protein (Homo sapiens (Human), UniProt O75874, R132C); assay: IDH1-R132C enzymatic assay (inhibition of NADPH consumption, diaphorase/resazurin readout); type: biochemical; conditions: read-out: Enzyme IDH1 R132C IC50 (Range)
Chain of IDH1-R132C recombinant protein (O75874 whole entry R132C): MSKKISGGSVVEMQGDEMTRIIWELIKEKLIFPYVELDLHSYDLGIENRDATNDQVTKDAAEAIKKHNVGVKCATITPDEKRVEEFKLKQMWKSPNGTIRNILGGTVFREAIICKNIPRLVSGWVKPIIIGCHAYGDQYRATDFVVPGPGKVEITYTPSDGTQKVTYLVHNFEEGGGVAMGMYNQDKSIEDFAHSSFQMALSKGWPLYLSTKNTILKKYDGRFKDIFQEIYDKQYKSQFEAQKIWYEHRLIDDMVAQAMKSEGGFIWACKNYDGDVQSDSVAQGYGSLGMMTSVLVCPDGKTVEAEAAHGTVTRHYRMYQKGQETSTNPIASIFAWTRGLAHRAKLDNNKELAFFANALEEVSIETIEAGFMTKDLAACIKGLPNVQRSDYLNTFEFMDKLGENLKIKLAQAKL
Summary of the method: as §1

[3] = tested on: HCT116 isogenic IDH1-R132H mutant cells; assay: Cellular 2-HG assay using HCT116 mutant IDH1 cells (R132H), RapidFire mass spectrometry; type: cell-based; conditions: Homo sapiens, read-out: HCT116 IDH1 R132H IC50 (Range)
[4] = tested on: HCT116 isogenic IDH1-R132C mutant cells; assay: Cellular 2-HG assay using HCT116 mutant IDH1 cells (R132C), RapidFire mass spectrometry; type: cell-based; conditions: Homo sapiens, read-out: HCT116 IDH1 R132C IC50 (Range)
[5] = HCT-116, cellular 2-HG level, HCT116 IDH1-R132H cells, 24 hours
[6] = HCT-116, cellular 2-HG level, HCT116 IDH1-R132C cells, 24 hours

Chain of IDH1-R132H recombinant protein (O75874 whole entry R132H): as the sequence (O75874 whole entry R132C) above, with C132H counted along it

Row | SMILES | IC50 [1] [µM] | IC50 [2] [µM] | IC50 [3, 5] [µM] | IC50 [4, 6] [µM] | IC50 ([3]; HCT-116, 24 h) [µM] | IC50 ([4]; HCT-116, 24 h) [µM]
1 | C[C@H](Nc1nccc(NC(=O)C2CC2)n1)c1cc2cc(Cl)c(F)cc2[nH]c1=O [Compound I-180, (S)—N-(2-((1-(6-chloro-7-fluoro-2-oxo-1,2-dihydroquinolin-3-yl)ethyl)amino)pyrimidin-4-yl)cyclopropanecarboxamide] | 0.1 to 1 | 0.1 to 1 | 0.1 to 1 | 0.1 to 1 |  | 
2 | COc1nc(N[C@@H](C)c2cc3cc(Cl)c(F)cc3[nH]c2=O)ncc1C#N [Compound I-181] | < 0.1 | 0.1 to 1 |  |  | 0.1 to 1 | 0.1 to 1
3 | CC(=O)Nc1ccnc(N[C@@H](C)c2cc3cc(Cl)cnc3[nH]c2=O)n1 [Compound I-182] | < 0.1 | 0.1 to 1 | 0.1 to 1 | 0.1 to 1 |  | 
4 | C[C@H](Nc1nccc(-n2nnnc2C2CC2)n1)c1cc2cc(Cl)cnc2[nH]c1=O [Compound I-184] | 0.1 to 1 | 0.1 to 1 | 0.1 to 1 | 0.1 to 1 |  | 
